Type in all cases: biochemical
For test [1], the target named is JAK1 (Homo sapiens, UniProt P23458). As to the kind of experiment: JAK kinase activity, homogeneous time-resolved fluorescence (JAK1 reaction system). The following applies: ATP 2 μM, JAK1 protein 0.2 ng/μL; read-out: JAK 1 activity. The essentials: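 HTRF assay: JAK1 (0.2 ng/μL) with 2 μM ATP and substrate in 50 mM Hepes pH 7.0, 5 mM MgCl2, 1 mM DTT, 1 h. Phospho-substrate antibody/XL-615 detection with EDTA; 665/615 nm ratio, excitation 320 nm. IC50 from Hill-type fit against no-enzyme and no-compound controls.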
Chain of JAK1 (P23458 whole entry): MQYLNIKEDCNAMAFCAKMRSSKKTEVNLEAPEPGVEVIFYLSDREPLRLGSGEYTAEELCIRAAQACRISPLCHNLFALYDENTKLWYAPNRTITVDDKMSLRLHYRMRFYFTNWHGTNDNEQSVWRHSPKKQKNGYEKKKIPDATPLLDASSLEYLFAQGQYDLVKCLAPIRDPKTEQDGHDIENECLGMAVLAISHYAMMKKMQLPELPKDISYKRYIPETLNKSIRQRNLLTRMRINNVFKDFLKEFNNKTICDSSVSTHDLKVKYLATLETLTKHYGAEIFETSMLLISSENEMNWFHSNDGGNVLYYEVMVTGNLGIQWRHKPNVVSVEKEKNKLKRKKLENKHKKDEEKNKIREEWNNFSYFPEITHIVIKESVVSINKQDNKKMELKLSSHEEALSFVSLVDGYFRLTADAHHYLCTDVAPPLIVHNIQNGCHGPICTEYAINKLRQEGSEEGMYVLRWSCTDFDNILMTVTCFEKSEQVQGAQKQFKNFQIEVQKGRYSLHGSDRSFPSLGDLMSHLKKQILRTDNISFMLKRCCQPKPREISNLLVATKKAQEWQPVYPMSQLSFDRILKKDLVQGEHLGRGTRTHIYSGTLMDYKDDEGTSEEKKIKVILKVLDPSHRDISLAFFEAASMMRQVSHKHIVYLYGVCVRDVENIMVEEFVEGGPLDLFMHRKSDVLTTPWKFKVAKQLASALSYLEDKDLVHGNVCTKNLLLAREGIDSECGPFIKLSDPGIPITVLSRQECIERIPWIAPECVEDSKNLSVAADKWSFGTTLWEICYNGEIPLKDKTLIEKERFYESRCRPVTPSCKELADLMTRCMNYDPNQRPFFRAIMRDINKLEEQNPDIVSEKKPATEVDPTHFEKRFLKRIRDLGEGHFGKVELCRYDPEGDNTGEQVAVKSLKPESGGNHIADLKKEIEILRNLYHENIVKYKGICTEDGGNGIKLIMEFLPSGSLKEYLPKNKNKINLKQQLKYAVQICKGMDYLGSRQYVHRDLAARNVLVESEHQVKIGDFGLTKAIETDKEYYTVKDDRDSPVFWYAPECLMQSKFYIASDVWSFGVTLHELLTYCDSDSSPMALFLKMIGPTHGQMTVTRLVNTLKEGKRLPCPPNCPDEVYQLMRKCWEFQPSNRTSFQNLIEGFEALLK

Test [2] has as its target JAK2 (Homo sapiens, UniProt O60674). As to the kind of experiment: JAK kinase activity, homogeneous time-resolved fluorescence (JAK2 reaction system). The following applies: ATP 2 μM, JAK2 protein 0.01 ng/μL. The essentials: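 IC50 derived by Hill-equation fit of the 665/615 nm time-resolved fluorescence ratio after EDTA-containing detection mix with anti-phosphosubstrate antibody. Preceding 1 h reaction contained 2 μM ATP, 0.01 ng/μL JAK2, substrate, 50 mM Hepes pH 7.0, 5 mM MgCl2, 1 mM DTT.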

Test [3] concerns the target T1, JAK3 (Homo sapiens, UniProt P52333).
T1 sequence (P52333 1-1124): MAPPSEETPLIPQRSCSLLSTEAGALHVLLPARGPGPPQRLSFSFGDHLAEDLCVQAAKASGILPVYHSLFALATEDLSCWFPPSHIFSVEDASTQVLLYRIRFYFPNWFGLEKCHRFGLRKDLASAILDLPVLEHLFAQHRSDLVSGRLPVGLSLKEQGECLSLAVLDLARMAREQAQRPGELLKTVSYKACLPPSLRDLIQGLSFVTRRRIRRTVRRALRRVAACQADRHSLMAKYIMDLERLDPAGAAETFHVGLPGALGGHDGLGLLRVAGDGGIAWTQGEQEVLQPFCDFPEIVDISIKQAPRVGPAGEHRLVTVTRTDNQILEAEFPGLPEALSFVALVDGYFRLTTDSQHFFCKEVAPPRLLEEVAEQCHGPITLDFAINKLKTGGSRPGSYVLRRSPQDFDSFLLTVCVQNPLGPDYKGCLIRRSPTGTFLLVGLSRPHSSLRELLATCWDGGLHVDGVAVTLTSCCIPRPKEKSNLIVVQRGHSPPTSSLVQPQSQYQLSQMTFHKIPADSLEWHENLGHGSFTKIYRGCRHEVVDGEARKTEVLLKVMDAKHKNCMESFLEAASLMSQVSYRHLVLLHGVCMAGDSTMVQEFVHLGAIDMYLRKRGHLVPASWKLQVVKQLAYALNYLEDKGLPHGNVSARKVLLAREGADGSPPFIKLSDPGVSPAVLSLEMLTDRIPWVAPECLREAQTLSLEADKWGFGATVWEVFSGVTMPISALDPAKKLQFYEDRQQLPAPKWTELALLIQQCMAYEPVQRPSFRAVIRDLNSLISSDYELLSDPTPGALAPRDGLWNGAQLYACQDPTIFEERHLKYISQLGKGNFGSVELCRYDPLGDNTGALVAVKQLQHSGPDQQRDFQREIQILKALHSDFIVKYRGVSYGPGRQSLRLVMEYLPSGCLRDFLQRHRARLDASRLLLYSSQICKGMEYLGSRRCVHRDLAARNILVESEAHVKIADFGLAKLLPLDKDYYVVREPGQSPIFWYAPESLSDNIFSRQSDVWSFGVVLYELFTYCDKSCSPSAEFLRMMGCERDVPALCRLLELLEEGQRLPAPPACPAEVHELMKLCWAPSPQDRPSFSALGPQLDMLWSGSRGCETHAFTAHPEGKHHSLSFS
As to the kind of experiment: JAK kinase activity, homogeneous time-resolved fluorescence (JAK3 reaction system). The following applies: ATP 2 μM, JAK3 protein 0.04 ng/μL; read-out: JAK 3 activity.

For test [4], the target named is TYK2 (Homo sapiens, UniProt P29597). As to the kind of experiment: JAK kinase activity, homogeneous time-resolved fluorescence (TYK2 reaction system). The following applies: ATP 2 μM, TYK2 protein 0.2 ng/μL; read-out: TYK 2 activity. The essentials:
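Activity read as the 665 nm/615 nm ratio after adding EDTA-containing detection mix with anti-phospho-substrate antibody and XL-615. Beforehand, 0.2 ng/μL TYK2, 2 μM ATP, substrate and compound reacted 1 h in pH 7.0 Hepes buffer with MgCl2 and DTT. IC50 fitted with Hill-slope equation.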

Each structure is given as a SMILES string. pIC50: −log10 of the molar value. Where only a bound is given, the exact number is not on record here.

Chain of JAK2 (O60674 whole entry): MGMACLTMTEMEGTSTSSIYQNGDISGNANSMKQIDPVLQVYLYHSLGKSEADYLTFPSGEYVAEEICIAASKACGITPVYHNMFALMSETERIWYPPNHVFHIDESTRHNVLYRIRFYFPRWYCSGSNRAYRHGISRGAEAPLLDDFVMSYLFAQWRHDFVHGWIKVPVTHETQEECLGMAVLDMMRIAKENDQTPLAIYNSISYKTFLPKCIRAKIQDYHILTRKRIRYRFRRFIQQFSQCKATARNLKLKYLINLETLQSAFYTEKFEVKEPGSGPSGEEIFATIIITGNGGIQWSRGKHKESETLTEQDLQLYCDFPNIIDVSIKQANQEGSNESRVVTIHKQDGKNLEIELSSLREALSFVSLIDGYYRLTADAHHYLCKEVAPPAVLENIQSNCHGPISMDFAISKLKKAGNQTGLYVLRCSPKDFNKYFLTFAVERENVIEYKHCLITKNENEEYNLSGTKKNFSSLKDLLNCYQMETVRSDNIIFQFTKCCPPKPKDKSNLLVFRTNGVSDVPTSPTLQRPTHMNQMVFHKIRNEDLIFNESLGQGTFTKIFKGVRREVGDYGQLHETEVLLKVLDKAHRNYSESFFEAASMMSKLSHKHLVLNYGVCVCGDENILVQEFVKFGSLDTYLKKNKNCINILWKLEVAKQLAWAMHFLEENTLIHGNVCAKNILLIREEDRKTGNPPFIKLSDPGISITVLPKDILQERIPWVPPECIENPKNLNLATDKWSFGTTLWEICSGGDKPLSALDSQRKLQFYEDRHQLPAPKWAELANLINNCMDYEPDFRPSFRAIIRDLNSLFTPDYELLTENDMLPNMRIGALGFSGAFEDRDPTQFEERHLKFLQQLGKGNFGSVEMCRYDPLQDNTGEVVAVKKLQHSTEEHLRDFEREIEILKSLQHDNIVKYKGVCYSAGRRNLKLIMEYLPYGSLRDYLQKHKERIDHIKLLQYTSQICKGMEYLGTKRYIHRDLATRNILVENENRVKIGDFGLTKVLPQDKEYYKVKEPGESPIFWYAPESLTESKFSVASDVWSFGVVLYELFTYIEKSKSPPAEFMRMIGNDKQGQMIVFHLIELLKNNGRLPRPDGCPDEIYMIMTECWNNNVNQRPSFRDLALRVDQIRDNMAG
Chain of TYK2 (P29597 whole entry): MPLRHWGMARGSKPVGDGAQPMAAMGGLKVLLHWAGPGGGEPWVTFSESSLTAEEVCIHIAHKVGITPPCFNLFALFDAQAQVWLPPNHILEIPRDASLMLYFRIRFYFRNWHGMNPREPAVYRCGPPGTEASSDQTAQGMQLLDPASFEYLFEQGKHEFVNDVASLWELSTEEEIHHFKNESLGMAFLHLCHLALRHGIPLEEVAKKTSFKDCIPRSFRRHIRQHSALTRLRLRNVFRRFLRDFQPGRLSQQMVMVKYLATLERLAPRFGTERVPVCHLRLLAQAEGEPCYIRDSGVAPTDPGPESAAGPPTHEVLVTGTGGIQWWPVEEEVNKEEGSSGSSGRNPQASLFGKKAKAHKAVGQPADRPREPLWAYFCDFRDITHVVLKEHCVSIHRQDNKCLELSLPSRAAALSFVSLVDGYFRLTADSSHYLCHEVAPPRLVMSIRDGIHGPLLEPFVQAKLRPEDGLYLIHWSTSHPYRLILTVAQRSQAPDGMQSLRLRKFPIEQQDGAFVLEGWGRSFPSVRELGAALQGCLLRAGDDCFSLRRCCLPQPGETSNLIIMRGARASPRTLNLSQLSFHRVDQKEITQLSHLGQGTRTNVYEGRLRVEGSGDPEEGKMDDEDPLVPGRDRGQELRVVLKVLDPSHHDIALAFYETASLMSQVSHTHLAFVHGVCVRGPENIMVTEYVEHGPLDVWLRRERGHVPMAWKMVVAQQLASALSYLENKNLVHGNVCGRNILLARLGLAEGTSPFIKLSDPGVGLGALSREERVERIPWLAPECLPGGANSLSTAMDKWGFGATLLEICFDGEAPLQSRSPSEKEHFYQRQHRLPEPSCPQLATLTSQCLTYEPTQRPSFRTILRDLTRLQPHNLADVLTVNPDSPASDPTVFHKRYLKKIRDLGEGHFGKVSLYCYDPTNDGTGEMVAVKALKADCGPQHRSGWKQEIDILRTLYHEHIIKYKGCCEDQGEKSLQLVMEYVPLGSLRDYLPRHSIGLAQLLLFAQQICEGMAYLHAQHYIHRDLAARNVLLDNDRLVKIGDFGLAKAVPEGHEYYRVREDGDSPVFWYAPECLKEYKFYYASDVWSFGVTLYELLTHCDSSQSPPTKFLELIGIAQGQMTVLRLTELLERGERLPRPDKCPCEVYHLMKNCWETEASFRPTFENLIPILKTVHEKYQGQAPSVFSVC

With `Nc1cc2ccc1-c1ccnc(n1)Nc1ccc(OCC3CC(F)(F)C3)c(c1)COCCCCNC2=O` [Example 127, 1^2-Amino-4^4-((3,3-difluorocyclo-butyl)methoxy)-6-oxa-3,11-diaza-2(4,2)-pyrimidina-1(1,4),4(1,3)-di-benzenacyclododecaphan-12-one], the pIC50 in test [1] was 5.00 to 6.00; in test [2], 6.00 to 7.00; in test [3], > 8.00; in test [4], 5.00 to 6.00.

Regarding `CC1CCNC(=O)c2ccc(c([N+](=O)[O-])c2)-c2ccnc(n2)Nc2ccc(OCC3CCCC3)c(c2)COC1` (centres unmarked) [Example 128, 4^4-(cyclopentylmethoxy)-8-methyl-1^2-nitro-6-oxa-3,11-diaza-2(4,2)-pyrimidina-1(1,4),4(1,3)-dibenzena-cyclododecaphan-12-one], the pIC50 in test [1] was < 5.00; in test [2] it was < 5.00; in test [3], 6.00 to 7.00; in test [4], < 5.00.

Regarding `CC1CCNC(=O)c2ccc(c([N+](=O)[O-])c2)-c2ccnc(n2)Nc2ccc(Oc3cccnc3)c(c2)COC1` (centres unmarked) [Example 129, 8-methyl-1^2-nitro-4^4-(pyridin-3-ox-yl)-6-oxa-3,11-diaza-2(4,2)-pyrimi-dina-1(1,4),4(1,3)-dibenzenacyclo-dodecaphan-12-one], the pIC50 was 5.00 to 6.00 in test [1], 5.00 to 6.00 in test [2], 6.00 to 7.00 in test [3] and < 5.00 in test [4].

With `CC1CCNC(=O)c2ccc(c(N)c2)-c2ccnc(n2)Nc2ccc(Oc3cccnc3)c(c2)COC1` (centres unmarked) [Example 130, 1^2-amino-8-methyl-4^4-(pyridin-3-oxy)-6-oxa-3,11-diaza-2(4,2)-pyri-midina-1(1,4),4(1,3)-dibenzenacyclo-dodecaphan-12-one], the pIC50 in test [1] was 5.00 to 6.00; in test [2], 6.00 to 7.00; in test [3] it was 7.00 to 7.96; in test [4], < 5.00.

Consider `CC1CCNC(=O)c2ccc(c(N)c2)-c2ccnc(n2)Nc2ccc(OCC3CCCC3)c(c2)COC1` (centres unmarked) [Example 131, 1^2-amino-4^4-(cyclopentylmethoxy)-8-methyl-6-oxa-3,11-diaza-2(4,2)-pyrimidina-1(1,4),4(1,3)-dibenzena-cyclododecaphan-12-one], for which the pIC50 was 5.00 to 6.00 in test [1], 6.00 to 7.00 in test [2], 7.00 to 7.96 in test [3] and < 5.00 in test [4].

Consider `CC1CCNC(=O)c2ccc(c(N)c2)-c2ccnc(n2)Nc2ccc(OCC(F)(F)F)c(c2)COC1` (centres unmarked) [Example 132], for which the pIC50 in test [1] is 5.00 to 6.00; in test [2], 6.00 to 7.00; in test [3], > 8.00; in test [4], < 5.00.

Take `O=C1NCCCCOCc2cc(ccc2OCC2CCc3ccccc32)Nc2nccc(n2)-c2ccc1cc2[N+](=O)[O-]` (centres unmarked) [Example 133, 4^4-((2,3-dihydro-1H-inden-1-yl)methoxy)-1^2-nitro-6-oxa-3,11-diaza-2(4,2)-pyrimidina-1(1,4),4(1,3)-dibenzenacyclododecaphan-12-one]: the pIC50 is < 5.00 in test [1], < 5.00 in test [2], 5.00 to 6.00 in test [3] and < 5.00 in test [4].

As to `Nc1cc2ccc1-c1ccnc(n1)Nc1ccc(OCC3CCc4ccccc43)c(c1)COCCCCNC2=O` (centres unmarked) [Example 134, 1^2-amino-4^4-((2,3-dihydro-1H-inden-1-yl)methoxy)-6-oxa-3,11-diaza-2(4,2)-pyrimidina-1(1,4),4(1,3)-dibenzenacyclododecaphan-12-one], the pIC50 in test [1] was 5.00 to 6.00; in test [2] it was 5.00 to 6.00; in test [3], 7.00 to 7.96; in test [4], 5.00 to 6.00.

On to `CC1CCNC(=O)c2ccc(c([N+](=O)[O-])c2)-c2ccnc(n2)Nc2ccc(OCC3CCOC3)c(c2)COC1` (centres unmarked) [Example 135, 8-methyl-1^2-nitro-4^4-((tetrahydro-furan-3-yl)methoxy)-6-oxa-3,11-diaza-2(4,2)-pyrimidina-1(1,4),4(1,3)-dibenzenacyclododecaphan-12-one], for which the pIC50 in test [1] is 5.00 to 6.00; in test [2], 5.00 to 6.00; in test [3], 6.00 to 7.00; in test [4], < 5.00.

Take `CC1CCNC(=O)c2ccc(c(N)c2)-c2ccnc(n2)Nc2ccc(OCC3CCOC3)c(c2)COC1` (centres unmarked) [Example 136, 1^2-amino-8-methyl-4^4-((tetrahydro-furan-3-yl)methoxy)-6-oxa-3,11-diaza-2(4,2)-pyrimidina-1(1,4),4(1,3)-dibenzenacyclododecaphan-12-one]: the pIC50 in test [1] was 5.00 to 6.00; in test [2], 6.00 to 7.00; in test [3] it was > 8.00; in test [4], 5.00 to 6.00.

Consider `CC1CCNC(=O)c2ccc(c([N+](=O)[O-])c2)-c2ccnc(n2)Nc2ccc(OC3CCCOC3)c(c2)COC1` (centres unmarked) [Example 137, 8-methyl-1^2-nitro-4^4-((tetrahydro-2H-pyran-3-yl)oxy)-6-oxa-3,11-di-aza-2(4,2)-pyrimidina-1(1,4),4(1,3)-dibenzenacyclododecaphan-12-one], for which the pIC50 in test [1] was 5.00 to 6.00; in test [2] it was 5.00 to 6.00; in test [3], 6.00 to 7.00; in test [4], < 5.00.

`CC1CCNC(=O)c2ccc(c(N)c2)-c2ccnc(n2)Nc2ccc(OC3CCCOC3)c(c2)COC1` (centres unmarked) [Example 138]: the pIC50 is 5.00 to 6.00 in test [1], 6.00 to 7.00 in test [2], > 8.00 in test [3] and 5.00 to 6.00 in test [4].

Consider `CC1CCNC(=O)c2ccc(c([N+](=O)[O-])c2)-c2ccnc(n2)Nc2ccc(OCC3CCCOC3)c(c2)COC1` (centres unmarked) [Example 139, 8-methyl-1^2-nitro-4^4-((tetrahydro-2H-pyran-3-yl)methoxy)-6-oxa-3,11-diaza-2(4,2)-pyrimidina-1(1,4),4(1,3)-dibenzenacyclododecaphan-12-one], for which the pIC50 in test [1] is 5.00 to 6.00; in test [2], 5.00 to 6.00; in test [3] it was 6.00 to 7.00; in test [4], < 5.00.

Consider `CC1CCNC(=O)c2ccc(c(N)c2)-c2ccnc(n2)Nc2ccc(OCC3CCCOC3)c(c2)COC1` (centres unmarked) [Example 140, 1^2-amino-8-methyl-4^4-((tetrahydro-2H-pyran-3-yl)methoxy)-6-oxa-3,11-diaza-2(4,2)-pyrimidina-1(1,4),4(1,3)-dibenzenacyclododecaphan-12-one], for which the pIC50 was 5.00 to 6.00 in test [1], 6.00 to 7.00 in test [2], > 8.00 in test [3] and 5.00 to 6.00 in test [4].

For `CC1CCNC(=O)c2ccc(c([N+](=O)[O-])c2)-c2ccnc(n2)Nc2ccc(OCC3CCC3)c(c2)COC1` (centres unmarked) [Example 141, 4^4-(cyclobutylmethoxy)-8-methyl-1^2-nitro-6-oxa-3,11-diaza-2(4,2)-pyrimidina-1(1,4),4(1,3)-dibenzena-cyclododecaphan-12-one], the pIC50 is < 5.00 in test [1], < 5.00 in test [2], 5.00 to 6.00 in test [3] and < 5.00 in test [4].

Consider `CC1CCNC(=O)c2ccc(c(N)c2)-c2ccnc(n2)Nc2ccc(OCC3CCC3)c(c2)COC1` (centres unmarked) [Example 142], for which the pIC50 is 5.00 to 6.00 in test [1], 5.00 to 6.00 in test [2], 7.00 to 7.96 in test [3] and < 5.00 in test [4].

On to `Nc1cc2ccc1-c1ccnc(n1)Nc1ccc(Oc3ccncc3)c(c1)COCCCCNC2=O` [Example 143, 1^2-amino-4^4-(pyridin-4-oxy)-6-oxa-3,11-diaza-2(4,2)-pyrimidina-1(1,4),4(1,3)-dibenzenacyclododeca-phan-12-one], for which the pIC50 in test [1] is < 5.00; in test [2] it was < 5.00; in test [3], 6.00 to 7.00; in test [4], < 5.00.

The values are drawn from US20230203059A1, “MACROCYCLIC JAK INHIBITOR AND USES THEREOF” (Biopolar Hongye (Guangdong) Pharmaceutical Co. Ltd., priority 2020, published 2023).
